Columns and labels:
CDK2/Cyclin E1 = CDK2/Cyclin E1 (Homo sapiens, UniProt P24941); experiment: CDK2/Cyclin E1 Biochemical Assay (TR-FRET), 0.060 mM ATP; settings: 0.15 μM Rb (Ser780)-biotin substrate, pH7.0, 60 min preincubation, 120 min reaction, room temperature
Summary of the method: (§1)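 IC50 was from a four-parameter logistic fit of the 665/620 nm TR-FRET ratio (Eu anti-pRb Ser780 mAb, streptavidin-XL665). Compound (0-10 μM) was preincubated 60 min with enzyme, then reacted 120 min at room temperature with 0.15 μM biotinylated Rb (Ser780) peptide. ATP was 0.015 mM for CDK1/Cyclin B1 and 0.060 mM for CDK2/Cyclin E1; buffer was HEPES pH7.0.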

CDK1/Cyclin B1 = CDK1/Cyclin B1 (Homo sapiens, UniProt P06493); experiment: CDK1/Cyclin B1 Biochemical Assay (TR-FRET), 0.015 mM ATP; settings: 0.15 μM Rb (Ser780)-biotin substrate, pH7.0, 60 min preincubation, 120 min reaction, room temperature
Summary of the method: as §1

Sequence of CDK1/Cyclin B1 (P06493 whole entry): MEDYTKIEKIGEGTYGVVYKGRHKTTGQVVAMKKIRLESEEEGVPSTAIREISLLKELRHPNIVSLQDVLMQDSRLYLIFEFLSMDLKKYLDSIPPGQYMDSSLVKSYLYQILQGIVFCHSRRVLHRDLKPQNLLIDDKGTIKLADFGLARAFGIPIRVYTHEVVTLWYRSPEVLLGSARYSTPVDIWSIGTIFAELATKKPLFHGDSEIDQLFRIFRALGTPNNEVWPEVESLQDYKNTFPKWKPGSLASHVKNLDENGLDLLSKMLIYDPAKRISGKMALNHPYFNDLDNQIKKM
Sequence of CDK1/Cyclin B1 (P14635 whole entry partner): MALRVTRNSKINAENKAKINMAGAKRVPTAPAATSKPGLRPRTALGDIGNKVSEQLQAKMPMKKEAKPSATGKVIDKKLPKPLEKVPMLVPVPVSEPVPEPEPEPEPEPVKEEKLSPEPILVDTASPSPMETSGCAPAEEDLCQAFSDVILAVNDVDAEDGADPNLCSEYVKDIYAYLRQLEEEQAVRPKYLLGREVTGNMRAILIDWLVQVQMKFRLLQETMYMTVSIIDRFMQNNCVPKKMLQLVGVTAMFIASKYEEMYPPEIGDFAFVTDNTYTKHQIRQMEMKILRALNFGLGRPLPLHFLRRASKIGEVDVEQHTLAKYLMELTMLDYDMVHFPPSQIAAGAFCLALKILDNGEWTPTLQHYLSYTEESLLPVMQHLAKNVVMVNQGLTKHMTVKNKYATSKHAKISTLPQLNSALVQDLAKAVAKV

Row | IC50 (CDK2/Cyclin E1) | IC50 (CDK1/Cyclin B1) | SMILES
1 | 0.012 µM | 0.232 µM | CC(NC(=O)O[C@H]1CC[C@@H](c2cc(Nc3ccc4c(c3)CS(=O)(=O)N4C)n[nH]2)C1)C1COC1 (relative stereo) [Example 235, cis-3-(3-((1-methyl-2,2-dioxido-1,3-dihydrobenzo[c]isothiazol-5-yl)amino)-1H-pyrazol-5-yl)cyclopentyl(1-(oxetan-3-yl)ethyl)carbamate]
2 | 0.0009 µM | 0.023 µM | O=C(NC1CCC1)O[C@H]1CC[C@@H](c2cc(Nc3ccc4c(c3)CS(=O)(=O)N4)n[nH]2)C1 (single isomer, unassigned) [Example 380b, cis-3-(3-((2,2-dioxido-1,3-dihydrobenzo[c]isothiazol-5-yl)amino)-1H-pyrazol-5-yl)cyclopentyl cyclobutylcarbamate]
3 | 0.032 µM | 0.773 µM | C[C@@H](CO)NC(=O)O[C@H]1CC[C@@H](c2cc(Nc3ccc4c(c3F)CN(C3CC3)S4(=O)=O)n[nH]2)C1 (relative stereo) [Example 120, cis-3-(3-((2-cyclopropyl-4-fluoro-1,1-dioxido-2,3-dihydrobenzo[d]isothiazol-5-yl)amino)-1H-pyrazol-5-yl)cyclopentyl((S)-1-hydroxypropan-2-yl)carbamate]
4 | 0.0043 µM | 0.364 µM | CC1(NC(=O)O[C@H]2CC[C@@H](c3cc(Nc4ccc5c(c4F)CNS5(=O)=O)n[nH]3)C2)COC1 (single isomer, unassigned) [Example 164a, cis-3-(3-((4-fluoro-1,1-dioxido-2,3-dihydrobenzo[d]isothiazol-5-yl)amino)-1H-pyrazol-5-yl)cyclopentyl(3-methyloxetan-3-yl)carbamate]
5 | 0.015 µM | 0.972 µM | CC(C)NC(=O)O[C@H]1CC[C@@H](c2cc(Nc3ccc4c(c3F)CN(CC3CC3)S4(=O)=O)n[nH]2)C1 (relative stereo) [Example 95, cis-3-(3-((2-(cyclopropylmethyl)-4-fluoro-1,1-dioxido-2,3-dihydrobenzo[d]isothiazol-5-yl)amino)-1H-pyrazol-5-yl)cyclopentyl isopropylcarbamate]
6 | 0.0016 µM | 0.191 µM | CC(C)(C)NC(=O)O[C@@H]1CC[C@H](c2cc(Nc3cc4c(cc3F)S(=O)(=O)NC4)n[nH]2)C1 (single isomer, unassigned) [Example 395a]
7 | 0.004 µM | 0.13 µM | CCCNC(=O)O[C@H]1CC[C@@H](c2cc(Nc3ccc4c(c3F)CS(=O)(=O)N4C)n[nH]2)C1 (single isomer, unassigned) [Example 256b, cis-3-(3-((4-fluoro-1-methyl-2,2-dioxido-1,3-dihydrobenzo[c]isothiazol-5-yl)amino)-1H-pyrazol-5-yl)cyclopentyl propylcarbamate]
8 | 0.0029 µM | 0.133 µM | CC(C)NC(=O)O[C@H]1CC[C@@H](c2cc(Nc3ccc4c(c3F)CS(=O)(=O)N4C)n[nH]2)C1 (single isomer, unassigned) [Example 255a, cis-3-(3-((4-fluoro-1-methyl-2,2-dioxido-1,3-dihydrobenzo[c]isothiazol-5-yl)amino)-1H-pyrazol-5-yl)cyclopentyl isopropylcarbamate]
9 | 0.0031 µM | 0.181 µM | CC1(NC(=O)O[C@H]2CC[C@@H](c3cc(Nc4ccc5c(c4Cl)CNS5(=O)=O)n[nH]3)C2)CC1 (single isomer, unassigned) [Example 40b, cis-3-(3-((4-chloro-1,1-dioxido-2,3-dihydrobenzo[d]isothiazol-5-yl)amino)-1H-pyrazol-5-yl)cyclopentyl(1-methylcyclopropyl)carbamate]
10 | 0.016 µM | 0.356 µM | [2H]C([2H])([2H])N1c2c(F)cc(Nc3cc([C@@H]4CC[C@H](OC(=O)NCCC)C4)[nH]n3)cc2CS1(=O)=O (single isomer, unassigned) [Example 290a, cis-3-(3-((7-fluoro-1-(methyl-d3)-2,2-dioxido-1,3-dihydrobenzo[c]isothiazol-5-yl)amino)-1H-pyrazol-5-yl)cyclopentyl propylcarbamate]
11 | 0.021 µM | 0.686 µM | CC(C)NC(=O)O[C@H]1CC[C@@H](c2cc(Nc3cc4c(cc3F)N(C3CC3)S(=O)(=O)C4)n[nH]2)C1 (relative stereo) [Example 302, cis-3-(3-((1-cyclopropyl-6-fluoro-2,2-dioxido-1,3-dihydrobenzo[c]isothiazol-5-yl)amino)-1H-pyrazol-5-yl)cyclopentyl isopropylcarbamate]
12 | 0.0038 µM | 0.079 µM | COCCN1c2ccc(Nc3cc([C@@H]4CC[C@H](OC(=O)NC(C)C)C4)[nH]n3)c(F)c2CS1(=O)=O (relative stereo) [Example 252, cis-3-(3-((4-fluoro-1-(2-methoxyethyl)-2,2-dioxido-1,3-dihydrobenzo[c]isothiazol-5-yl)cyclopentyl isopropylcarbamate]
13 | 0.0051 µM | 0.101 µM | CC1(NC(=O)O[C@H]2CC[C@@H](c3cc(Nc4ccc5c(c4F)CS(=O)(=O)N5)n[nH]3)C2)CCOCC1 (relative stereo) [Example 402, cis-3-(3-((4-fluoro-2,2-dioxido-1,3-dihydrobenzo[c]isothiazol-5-yl)amino)-1H-pyrazol-5-yl)cyclopentyl(4-methyltetrahydro-2H-pyran-4-yl)carbamate]
14 | 0.0047 µM | 0.652 µM | [2H]C([2H])([2H])N1Cc2c(ccc(Nc3cc([C@@H]4CC[C@H](OC(=O)NC(C)C)C4)[nH]n3)c2F)S1(=O)=O (single isomer, unassigned) [Example 129a, cis-3-(3-((4-fluoro-2-(methyl-d3)-1,1-dioxido-2,3-dihydrobenzo[d]isothiazol-5-yl)amino)-1H-pyrazol-5-yl)cyclopentyl isopropylcarbamate]
15 | 0.0025 µM | 0.216 µM | CC1(NC(=O)O[C@H]2CC[C@@H](c3cc(Nc4ccc5c(c4F)CN(C4CC4)S5(=O)=O)n[nH]3)C2)CC1 (single isomer, unassigned) [Example 119a, cis-3-(3-((2-cyclopropyl-4-fluoro-1,1-dioxido-2,3-dihydrobenzo[d]isothiazol-5-yl)amino)-1H-pyrazol-5-yl)cyclopentyl(1-methylcyclopropyl)carbamate]
16 | 0.001 µM | 0.014 µM | CC(C)NC(=O)O[C@H]1CC[C@@H](c2cc(Nc3ccc4c(c3)S(=O)(=O)NC4C)[nH]n2)C1 (single isomer, unassigned) [Example 5b, cis-3-(5-((3-methyl-1,1-dioxido-2,3-dihydrobenzo[d]isothiazol-6-yl)amino)-1H-pyrazol-3-yl)cyclopentyl isopropylcarbamate]
17 | 0.0025 µM | 0.091 µM | CC1(NC(=O)O[C@H]2CC[C@@H](c3cc(Nc4cc5c(cc4F)S(=O)(=O)NC5)n[nH]3)C2)CC1 (single isomer, unassigned) [Example 44b, cis-3-(3-((6-fluoro-1,1-dioxido-2,3-dihydrobenzo[d]isothiazol-5-yl)amino)-1H-pyrazol-5-yl)cyclopentyl(1-methylcyclopropyl)carbamate]
18 | 0.016 µM | 0.262 µM | CC(C)NC(=O)O[C@H]1CC[C@@H](c2cc(Nc3ccc4c(c3)CS(=O)(=O)N4C(C)C3COC3)n[nH]2)C1 (relative stereo) [Example 208, cis-3-(3-((1-(1-(oxetan-3-yl)ethyl)-2,2-dioxido-1,3-dihydrobenzo[c]isothiazol-5-yl)amino)-1H-pyrazol-5-yl)cyclopentyl isopropylcarbamate]
19 | 5.91 µM | > 10 µM | CC(C)NC(=O)O[C@H]1CC[C@@H](c2cc(Nc3ccc4c(c3F)CN(CC(O)CO)S4(=O)=O)nn2CC(O)CO)C1 (relative stereo) [Example 72, cis-3-(1-(2,3-dihydroxypropyl)-3-((2-(2,3-dihydroxypropyl)-4-fluoro-1,1-dioxido-2,3-dihydrobenzo[d]isothiazol-5-yl)amino)-1H-pyrazol-5-yl)cyclopentyl isopropylcarbamate]
20 | 0.029 µM | 0.251 µM | CC(C)NC(=O)O[C@H]1CC[C@@H](c2cc(Nc3ccc4c(c3)NS(=O)(=O)C4(C)C)n[nH]2)C1 (relative stereo) [Example 304, cis-3-(3-((3,3-dimethyl-2,2-dioxido-1,3-dihydrobenzo[c]isothiazol-6-yl)amino)-1H-pyrazol-5-yl)cyclopentyl isopropylcarbamate]
21 | 0.037 µM | 0.978 µM | Cc1c(Nc2cc([C@@H]3CC[C@H](OC(=O)NC(C)C)C3)[nH]n2)ccc2c1CS(=O)(=O)N2C (relative stereo) [Example 243, cis-3-(3-((1,4-dimethyl-2,2-dioxido-1,3-dihydrobenzo[c]isothiazol-5-yl)amino)-1H-pyrazol-5-yl)cyclopentyl isopropylcarbamate]
22 | 0.0021 µM | 0.029 µM | CC1(NC(=O)O[C@H]2CC[C@@H](c3cc(Nc4ccc5c(c4)CCS(=O)(=O)N5)n[nH]3)C2)CC1 (racemic) [Example 249, cis-3-(3-((2,2-dioxido-3,4-dihydro-1H-benzo[c][1,2]thiazin-6-yl)amino)-1H-pyrazol-5-yl)cyclopentyl(1-methylcyclopropyl)carbamate]
23 | 0.01 µM | 0.416 µM | CC(C)NC(=O)O[C@H]1CC[C@@H](c2cc(Nc3ccc4c(c3F)CN(CC(C)(C)O)S4(=O)=O)n[nH]2)C1 (relative stereo) [Example 76, cis-3-(3-((4-fluoro-2-(2-hydroxy-2-methylpropyl)-1,1-dioxido-2,3-dihydrobenzo[d]isothiazol-5-yl)amino)-1H-pyrazol-5-yl)cyclopentyl isopropylcarbamate]
24 | 0.0009 µM | 0.017 µM | CC(C)NC(=O)O[C@H]1CC[C@@H](c2cc(Nc3ccc4c(c3)CS(=O)(=O)N4)n[nH]2)C1 (single isomer, unassigned) [Example 7b]
